Drawing on US9884063B2, “Amido-substituted azole compounds” (Bayer Pharma Aktiengesellschaft, priority 2014, dated 2018), this text covers IC50 for 17 compounds.

Where a name gives a salt, the structure may show the parent alone.

One test deals with T1, TNKS2 (Homo sapiens, UniProt Q9H2K2).
T1 sequence (Q9H2K2 1-1166): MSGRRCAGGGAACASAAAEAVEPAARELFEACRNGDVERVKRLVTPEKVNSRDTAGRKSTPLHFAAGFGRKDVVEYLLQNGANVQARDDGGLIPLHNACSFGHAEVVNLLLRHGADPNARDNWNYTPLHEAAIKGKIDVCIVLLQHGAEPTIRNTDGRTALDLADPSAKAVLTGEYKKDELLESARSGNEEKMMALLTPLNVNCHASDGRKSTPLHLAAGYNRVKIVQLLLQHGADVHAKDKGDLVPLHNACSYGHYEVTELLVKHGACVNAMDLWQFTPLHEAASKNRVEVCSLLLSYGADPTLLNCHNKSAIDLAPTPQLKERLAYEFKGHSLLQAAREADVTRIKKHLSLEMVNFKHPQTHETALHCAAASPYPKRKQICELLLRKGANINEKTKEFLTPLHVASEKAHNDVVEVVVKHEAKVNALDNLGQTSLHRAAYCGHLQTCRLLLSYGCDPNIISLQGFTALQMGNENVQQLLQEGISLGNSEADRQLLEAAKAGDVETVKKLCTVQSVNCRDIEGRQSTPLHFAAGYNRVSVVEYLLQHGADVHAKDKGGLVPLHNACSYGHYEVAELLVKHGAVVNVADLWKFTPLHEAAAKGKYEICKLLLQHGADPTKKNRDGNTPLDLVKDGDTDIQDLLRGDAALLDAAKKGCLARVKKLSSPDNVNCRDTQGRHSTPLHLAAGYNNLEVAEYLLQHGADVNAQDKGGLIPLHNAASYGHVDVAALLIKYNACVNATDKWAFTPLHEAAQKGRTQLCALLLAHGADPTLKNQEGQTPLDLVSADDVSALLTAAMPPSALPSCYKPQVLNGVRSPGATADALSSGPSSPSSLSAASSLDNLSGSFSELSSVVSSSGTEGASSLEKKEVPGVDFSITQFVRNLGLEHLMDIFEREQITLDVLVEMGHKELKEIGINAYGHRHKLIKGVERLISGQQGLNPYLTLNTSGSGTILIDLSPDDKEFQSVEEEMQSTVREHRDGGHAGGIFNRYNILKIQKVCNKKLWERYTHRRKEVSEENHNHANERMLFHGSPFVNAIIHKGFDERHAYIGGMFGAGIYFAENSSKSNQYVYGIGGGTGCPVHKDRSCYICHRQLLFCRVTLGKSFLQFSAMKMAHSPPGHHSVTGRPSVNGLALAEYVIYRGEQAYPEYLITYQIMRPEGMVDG
As to the kind of experiment: Modified TNKS2 Assay 3 (BPS kit #80578, biotin-NAD+, 96 well). The class given is biochemical. Conditions: human TNKS2, BPS kit #80578, 96 well. The procedure, abridged: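 Commercial kit assay measuring TNKS2-catalysed incorporation of biotin-labelled NAD+ into a protein substrate, detected by streptavidin-HRP chemiluminescence. Run per manufacturer's protocol; IC50 is the concentration halving the normalised signal.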

The test system of test [1] is wildtype Wnt signaling cascade. As to the kind of experiment: HEK293 TOP Assay (Super TopFlash luciferase reporter, Wnt-3a stimulated). The class given is cell-based. Conditions: Homo sapiens. The procedure, abridged: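 Compounds (50 μM down to 15 nM, 3.16-fold steps, in CAFTY buffer pH 7.4, 2 mM Ca2+, 0.01% BSA) tested in parallel on TOP and FOP HEK293 reporter lines to define selective wildtype Wnt inhibition. Pathway driven by recombinant human Wnt-3a applied at 2500–5 ng/ml in two-fold dilutions.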
A general note: In a reporter assay the amount or activity of a reporter protein is the signal.

Test [2] concerns HEK293 FOP control reporter cell line. As to the kind of experiment: HEK293 FOP Assay (FOP control vector luciferase reporter). Conditions: Homo sapiens. The test is classed as cell-based. The procedure, abridged: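 Compound series 50 μM to 15 nM, 3.16-fold steps, were diluted in CAFTY buffer (pH 7.4, 2 mM Ca2+, 0.01% BSA) and tested alongside the TOP reporter line. Human Wnt-3a was added at 2500–5 ng/ml in two-fold steps. The control HEK293 line stably holds an FOP vector whose TCF elements are randomized and non-functional.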

Where [3] appears, read: HEK293, 16 h, HEK293 TOP reporter cell line, Wnt-3a at EC50, 16 hours incubation, compound dilution series 50 μM to 15 nM.
The mark [4] stands for this setting: HEK293 FOP control reporter cell line, 16 hours incubation, compound dilution series 50 μM to 15 nM.

A word on the IC50: it is the concentration that gives 50% inhibition. A high value points to lower potency.

As for `CC(CN1CCOCC1)NC(=O)c1[nH]cnc1C(=O)Nc1ccc(NC(=O)c2ccc(F)cc2Cl)cc1` (stereo not shown) [Example 268, N^4-{4-[(2-chloro-4-fluorobenzoyl)amino]phenyl}-N^5-[1-(morpholin-4-yl)propan-2-yl]-1H-imidazole-4,5-dicarboxamide], the IC50 turned out to be 0.003 µM against TNKS2, 0.06 µM in test [1] (setting [3]) and 41 µM in test [2] (setting [4]).

Consider `O=C(Nc1ccc(NC(=O)c2ocnc2C(=O)NCCN2CCCC(F)C2)cc1)c1ccc(F)cc1Cl` (stereo not shown) [Example 220, N^5-{4-[(2-chloro-4-fluorobenzoyl)amino]phenyl}-N^4-[2-(3-fluoropiperidin-1-yl)ethyl]-1,3-oxazole-4,5-dicarboxamide], for which the IC50 against TNKS2 worked out at 0.1 µM; in test [1] (setting [3]), 0.69 µM; in test [2] (setting [4]), 36 µM.

In the case of `O=C(Nc1ccc(NC(=O)c2nc[nH]c2C(=O)NCC2CCCN2)cc1)c1ccc(F)cc1Cl` (stereo not shown) [Example 284, N^4-{4-[(2-chloro-4-fluorobenzoyl)amino]phenyl}-N^5-(pyrrolidin-2-ylmethyl)-1H-imidazole-4,5-dicarboxamide hydrochloride salt], the IC50 was found to be 0.01 µM against TNKS2; 0.68 µM in test [1] (HEK293 TOP reporter cell line, Wnt-3a at EC50, 16 hours incubation, compound dilution series 50 μM to 15 nM); 50 µM in test [2] (HEK293, 16 h, HEK293 FOP control reporter cell line, 16 hours incubation, compound dilution series 50 μM to 15 nM).

Take `C[C@H]1CCCCN1CCNC(=O)c1[nH]cnc1C(=O)Nc1ccc(NC(=O)c2ccc(F)cc2Cl)cc1` [Example 266, N^4-{4-[(2-chloro-4-fluorobenzoyl)amino]phenyl}-N^5-{2-[(25)-2-methylpiperidin-1-yl]ethyl}-1H-imidazole-4,5-dicarboxamide formic acid salt]: the results for the half-inhibitory concentration (IC50) (on TNKS2; in test [1] (setting [3]); in test [2] (setting [4])) were 0.0009 µM, 0.03 µM and 20 µM, respectively.

Turning to `CC1CCN(CCCNC(=O)c2nc[nH]c2C(=O)Nc2ccc(NC(=O)c3ccc(F)cc3Cl)cc2)CC1` [Example 400, N^5-{4-[(2-chloro-4-fluorobenzoyl)amino]phenyl}-N^4-[3-(4-methylpiperidin-1-yl)propyl]-1H-imidazole-4,5-dicarboxamide], the IC50 against TNKS2 came out at 0.02 µM; in test [1] (setting [3]) it was 0.36 µM; in test [2] (setting [4]) it was 13 µM.

As to `O=C(Nc1ccc(NC(=O)c2[nH]cnc2C(=O)NCCN2CCCCC2)cc1F)c1ccccc1Cl` [Example 82, N^5-{4-[(2-chlorobenzoyl)amino]-3-fluorophenyl}-N^4-[2-(piperidin-1-yl)ethyl]-1H-imidazole-4,5-dicarboxamide], the figures for the IC50 (at TNKS2; in test [1] (setting [3]); in test [2] (setting [4])) were under 0.0005 µM, 0.09 µM and 44 µM, respectively.

As to `CN1CCN(CCCNC(=O)c2nc[nH]c2C(=O)Nc2ccc(NC(=O)c3ccc(F)cc3Cl)cc2)CC1` [Example 392, N^5-{4-[(2-chloro-4-fluorobenzoyl)amino]phenyl}-N^4-[3-(4-methylpiperazin-1-yl)propyl]-1H-imidazole-4,5-dicarboxamide], the figures for the IC50 (against TNKS2; in test [1] (setting [3]); in test [2] (setting [4])) were 0.007 µM, 0.16 µM and 18 µM, respectively.

As for `O=C(Nc1ccc(NC(=O)c2nc[nH]c2C(=O)NCCN2CCOCC2)cc1)c1ccc(F)cc1Cl` [Example 227, N^4-{4-[(2-chloro-4-fluorobenzoyl)amino]phenyl}-N^5-[2-(morpholin-4-yl)ethyl]-1H-imidazole-4,5-dicarboxamide], the results for the IC50 (against TNKS2; in test [1] (setting [3]); in test [2] (setting [4])) were 0.02 µM, 0.12 µM and 23 µM, respectively.

Turning to `COc1cc(NC(=O)c2[nH]cnc2C(=O)NCCN2CCCCC2)ccc1NC(=O)c1ccc(F)cc1Cl` [Example 97, N^5-{4-[(2-chloro-4-fluorobenzoyl)amino]-3-methoxyphenyl}-N^4-[2-(piperidin-1-yl)ethyl]-1H-imidazole-4,5-dicarboxamide], the IC50 at TNKS2 stood at 0.02 µM; in test [1] (setting [3]) it was 0.08 µM; in test [2] (setting [4]), 29 µM.

With `O=C(Nc1ccc(NC(=O)c2nc[nH]c2C(=O)NCCN2CCCC(F)(F)C2)cc1)c1ccc(F)cc1Cl` [Example 225, N^4-{4-[(2-chloro-4-fluorobenzoyl)amino]phenyl}-N^5-[2-(3,3-difluoropiperidin-1-yl)ethyl]-1H-imidazole-4,5-dicarboxamide], the values for the IC50 (on TNKS2; in test [1] (setting [3]); in test [2] (setting [4])) were 0.05 µM, 0.8 µM and 44 µM, respectively.

Regarding `O=C(Nc1ccc(NC(=O)c2nc[nH]c2C(=O)NCCN2CCC(F)(F)CC2)cc1)c1ccc(F)cc1Br` [Example 215, N^4-{4-[(2-bromo-4-fluorobenzoyl)amino]phenyl}-N^5-[2-(4,4-difluoropiperidin-1-yl)ethyl]-1H-imidazole-4,5-dicarboxamide], the IC50 on TNKS2 is 0.12 µM; in test [1] (setting [3]), 0.4 µM; in test [2] (setting [4]), 29.5 µM.

On to `O=C(Nc1ccc(NC(=O)c2ocnc2C(=O)NCCN2CC[C@H](F)C2)cc1)c1ccc(F)cc1Cl` [Example 221, N^5-{4-[(2-chloro-4-fluorobenzoyl)amino]phenyl}-N^4-{2-[(3S)-3-fluoropyrrolidin-1-yl]ethyl}-1,3-oxazole-4,5-dicarboxamide], for which the 50% inhibitory concentration (IC50) turned out to be 0.49 µM against TNKS2, 0.82 µM in test [1] (setting [3]) and 12 µM in test [2] (setting [4]).

On to `CNC(=O)c1nc[nH]c1C(=O)Nc1ccc(NC(=O)c2c(C)cc(C)cc2C)cc1` [Example 35, N^5-{4-[(mesitylcarbonyl)amino]phenyl}-N^4-methyl-1H-imidazole-4,5-dicarboxamide], for which the IC50 on TNKS2 is over 0.5 µM; in test [1] (setting [3]), 0.76 µM; in test [1] (HEK293, 16 h, HEK293 TOP reporter cells, Wnt3a at EC50, 16 hours, luciferase), 0.76 µM; in test [2] (HEK293 FOP control reporter cells, 16 hours, luciferase, dilution series from 50 μM), at least 50 µM.

In the case of `O=C(Nc1ccc(NC(=O)c2ocnc2C(=O)NCCN2CC[C@@H](F)C2)cc1)c1ccc(F)cc1Cl` [Example 222, N^5-{4-[(2-chloro-4-fluorobenzoyl)amino]phenyl}-N^4-{2-[(3R)-3-fluoropyrrolidin-1-yl]ethyl}-1,3-oxazole-4,5-dicarboxamide], the results for the IC50 (against TNKS2; in test [1] (setting [3]); in test [2] (setting [4])) were 0.19 µM, 0.67 µM and 23 µM, respectively.

`O=C(Nc1ccc(NC(=O)c2[nH]cnc2C(=O)NCCC2CC2)cc1)c1cc(F)c(F)cc1Cl` [Example 49, N^5-{4-[(2-chloro-4,5-difluorobenzoyl)amino]phenyl}-N^4-(2-cyclopropylethyl)-1H-imidazole-4,5-dicarboxamide]: the IC50 against TNKS2 was over 0.5 µM; in test [1] (setting [3]), 0.35 µM; in test [2] (setting [4]), 17 µM.

Regarding `COc1cc(NC(=O)c2[nH]cnc2C(=O)NCCN2CCCCC2)ccc1NC(=O)c1ccccc1Cl` [Example 101, N^5-{4-[(2-chlorobenzoyl)amino]-3-methoxyphenyl}-N^4-[2-(piperidin-1-yl)ethyl]-1H-imidazole-4,5-dicarboxamide], the values for the IC50 (on TNKS2; in test [1] (setting [3]); in test [2] (setting [4])) were 0.01 µM, 0.22 µM and 29 µM, respectively.

For the compound `O=C(Nc1ccc(NC(=O)c2[nH]cnc2C(=O)NCCN2CCCCC2)cc1F)c1ccc(F)cc1Cl` [Example 74, N^5-{4-[(2-chloro-4-fluorobenzoyl)amino]-3-fluorophenyl}-N^4-[2-(piperidin-1-yl)ethyl]-1H-imidazole-4,5-dicarboxamide], the half-inhibitory concentration (IC50) against TNKS2 is under 0.0005 µM; in test [1] (setting [3]), 0.07 µM; in test [2] (setting [4]), 14 µM.
